Results taken from patent US20160368879A1, “PHOTOACID GENERATOR, AND RESIN COMPOSITION FOR PHOTOLITHOGRAPHY” (SAN-APRO LTD., priority 2013, published 2016).

Key:
Assay type in all cases: physicochemical
[1] = Solvent solubility (butyl acetate, toluene or PGMEA); conditions: 25° C.
Procedure, shortened: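 Test-tube titration at 25° C: 0.1 g photoacid generator, solvent (butyl acetate, toluene or PGMEA) added in 0.2 g portions until fully dissolved. Scored as not dissolved if still undissolved after 20 g solvent.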

[2] = Thermal decomposition temperature (TG/DTA, 2% weight reduction); conditions: point of 2% weight reduction; 10° C./minute from 30° C. to 500° C.; nitrogen atmosphere
Description: The synthesized photoacid generator was measured for the change in weight under a temperature increasing condition of 10° C./minute from 30° C. to 500° C. under a nitrogen atmosphere using a thermal gravimetric/differential thermal analyzer (TG/DTA 6200, available from Seiko Instruments Inc.), and a point where the weight was reduced by 2% was defined as the thermal decomposition temperature.

[3] = Molar extinction coefficient of i-line (365 nm), UV-visible absorbance in acetonitrile; conditions: 0.25 mmol/L in acetonitrile, cell length 1 cm
Procedure, shortened: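 Compound at 0.25 mmol/L in acetonitrile; UV-visible absorbance scanned 200–500 nm in a 1 cm path cell. ε365 calculated from the absorbance at 365 nm.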

Structure (SMILES) | Solvent solubility PGMEA [1] [wt %] | Solvent solubility Butyl acetate [1] [wt %] | Solvent solubility Toluene [1] [wt %] | Thermal decomposition temperature [2] [°C] | Molar extinction coefficient [3] [L/mol/cm]
O=C1c2cc(C34CC5CC(CC(C5)C3)C4)cc3cc(C45CC6CC(CC(C6)C4)C5)cc(c23)C(=O)N1OS(=O)(=O)C(F)(F)F [Example A-15, 3,6-diadamantyl-1,8-naphthalimide trifluoromethanesulfonate] | 7 | 7.5 | 8.5 | 250 | 6000
O=C1c2cccc3c(Oc4c(F)c(F)c(F)c(F)c4F)ccc(c23)C(=O)N1OS(=O)(=O)c1c(F)c(F)c(F)c(F)c1F [Example A-25, 4-pentafluorophenoxy-1,8-naphthalimide pentafluorobenzenesulfonate] | 11 | 14 | 13 | 247 | 12000
CC1(C)C2CC[C@@]1(CS(=O)(=O)ON1C(=O)c3cccc4cc(OC(=O)c5c(F)c(F)c(F)c(F)c5F)cc(c34)C1=O)C(=O)C2 [Example A-52, 3-pentafluorobenzoyloxy-1,8-naphthalimide-(+)-10-camphorsulfonate] | 7.5 | 12 | 10 | 245 | 1300

Second part, the molecule after the results:

Solvent solubility PGMEA [1] [wt %] | Solvent solubility Butyl acetate [1] [wt %] | Solvent solubility Toluene [1] [wt %] | Thermal decomposition temperature [2] [°C] | Molar extinction coefficient [3] [L/mol/cm] | Structure (SMILES)
7.2 | 9 | 7 | 237 | 1600 | CCCC(=O)Oc1cc2c3c(cccc3c1)C(=O)N(OS(=O)(=O)CC13CCC(CC1=O)C3(C)C)C2=O (stereo not drawn) [Example A-50, 3-butyroyloxy-1,8-naphthalimide-(+)-10-camphorsulfonate]
1.5 | 1.5 | 2.5 | 228 | 6000 | CC1(C)C2CCC1(CS(=O)(=O)ON1C(=O)c3cccc4c(Cl)ccc(c34)C1=O)C(=O)C2 (stereo not drawn) [Example A-59, 4-chloro-1,8-naphthalimide-(+)-10-camphorsulfonate]
3.5 | 4 | 4 | 245 | 12000 | CC1(C)C2CCC1(CS(=O)(=O)ON1C(=O)c3cccc4c(Oc5c(F)c(F)c(F)c(F)c5F)ccc(c34)C1=O)C(=O)C2 (stereo not drawn) [Example A-45, 4-pentafluorophenoxy-1,8-naphthalimide-(+)-10-camphorsulfonate]
